Assay results from publication PMC4999848 (Toxins, 2016).
Where “and” joins values, the source holds several entries; their conditions need not be identical. Equal entries are not always repeated.

Legend:
trypsin = target: T1, trypsin (Sus scrofa, UniProt P00761); test: Deacetylation of 3/15ADON by trypsin; format: in vitro ADME, porcine; conditions: trypsin 0.35 mg/mL, PBS pH 7.4, 37 °C, substrate 100 μM
T1 construct: purchased Sigma-Aldrich
Protocol: (§1) Stock solutions of DON, 3ADON and 15ADON at 2 mg/mL were prepared in absolute ethanol and stored at −20 °C. For deacetylation assay, 3- or 15ADON were incubated with cells, explants, bacteria or digestive enzymes after being diluted in PBS^++ at a final concentration of 100 μM. PBS^++ solution containing only ethanol (at 1.5% final concentration) or DON (at 100 μM) were used in parallel as negative and positive control, respectively. For cells and explants, deacetylation assay take place in 6-well plates, wells being filled with 2 mL of PBS^++ containing either ethanol, DON, 3- or 15ADON. For fecal bacteria and digestive enzyme assay, deacetylation assay was conducted in 2 mL Eppendorf tubes filled with 1.5 mL of PBS^++ containing either ethanol, DON, 3- or 15ADON. In vitro intestinal digestion by luminal enzymes was performed using porcine enzymes from Sigma-Aldrich and physiological conditions. […] In all cases, aliquots of the reaction solution were collected immediately (i.e., “time zero” sample) or after the indicated time period at 37 °C and analyzed by HPLC. […]
(§2) Deacetylation was monitoring both in term of disappearance of 3- or 15ADON and formation of DON. […] Quantification was based on calibration with the corresponding standard using Millinium Software (Waters, Saint Quentin Falavier, France).

pancreatin = test: Deacetylation of 3/15ADON by pancreatin; format: in vitro ADME, porcine; conditions: pancreatin 1.23 mg/mL, PBS pH 7.4, 37 °C, substrate 100 μM
Protocol: as §1, §2

A498 cells = test: Deacetylation of 3/15ADON by A498 cells; format: in vitro ADME, human
Protocol: A498, Caco-2, T84 and HepG2 cells were used as models of human renal, small intestinal, colonic and hepatic cells, respectively. Cells were routinely grown in culture media (Dulbecco’s Modified Eagle Medium (DMEM), DMEM:F12 mixture and Minimum Essential Media (MEM) for A498/Caco-2, T84 and HepG2 cells, respectively) supplemented with 10% fetal calf serum and 1% antibiotics (streptomycin–penicillin solution). Cells were grown in 25 cm^2 ventilated flask maintained at 37 °C in a 5% CO2 incubator. Cells were routinely passed using trypsin-EDTA solution. For deacetylation experiments, cells were seeded onto 6-well plates at an initial density of 200,000 cells/cm^2. HepG2 and A498 were used 3–4 days post-seeding when confluence was reached. Caco-2 and T84 cells were let to differentiate for 10–14 days post-seeding before being used. In all cases, cells were washed three times with sterile phosphate buffer saline PBS^++ (PBS containing 100 mg/L of calcium and magnesium salts) before deacetylation assay.
Stock solutions of DON, 3ADON and 15ADON at 2 mg/mL were prepared in absolute ethanol and stored at −20 °C. […] In all cases, aliquots of the reaction solution were collected immediately (i.e., “time zero” sample) or after the indicated time period at 37 °C and analyzed by HPLC. […]

[1] = Deacetylation of 3/15ADON by kidney S9 fraction; format: in vitro ADME, human; conditions: for Disappearance of 3/15ADON, specific activity: S9 kidney 0.1 mg/mL, 37 °C, substrate 100 μM; for Activity of renal S9 fraction on 3/15ADON: in words
Protocol: Stock solutions of DON, 3ADON and 15ADON at 2 mg/mL were prepared in absolute ethanol and stored at −20 °C. For deacetylation assay, 3- or 15ADON were incubated with cells, explants, bacteria or digestive enzymes after being diluted in PBS^++ at a final concentration of 100 μM. PBS^++ solution containing only ethanol (at 1.5% final concentration) or DON (at 100 μM) were used in parallel as negative and positive control, respectively. For cells and explants, deacetylation assay take place in 6-well plates, wells being filled with 2 mL of PBS^++ containing either ethanol, DON, 3- or 15ADON. For fecal bacteria and digestive enzyme assay, deacetylation assay was conducted in 2 mL Eppendorf tubes filled with 1.5 mL of PBS^++ containing either ethanol, DON, 3- or 15ADON. In vitro intestinal digestion by luminal enzymes was performed using porcine enzymes from Sigma-Aldrich and physiological conditions. Briefly, 3- or 15ADON were incubated with pepsin (at 1.6 mg/mL corresponding to 900 U/mL), trypsin (at 0.35 mg/mL corresponding to 6000 U/mL), pancreatic lipase (at 0.75 mg/mL corresponding to 18 U/mL) or pancreatin (at 1.23 mg/mL, lipase activity >10 U/mL, protease activity >100 U/mL, amylase activity >100 U/mL). Except for pepsin for which the digestion was conducted in HCl solution at 10 mM (pH 2.3), in vitro digestion was performed in PBS^++ (pH 7.4). Finally, deacetylation assay was also performed with commercial pooled S9 fractions from human liver, small intestine and kidneys as well as with pure recombinant human CES1 and CES2. S9 fractions and CES1/2 were used at 0.1 mg/mL and 5 μg/mL (corresponding to CES activity >20 U/mL), respectively. In all cases, aliquots of the reaction solution were collected immediately (i.e., “time zero” sample) or after the indicated time period at 37 °C and analyzed by HPLC. […] In all cases, the experiments were conducted in triplicate (n = 3).
Deacetylation was monitoring both in term of disappearance of 3- or 15ADON and formation of DON. Measurement of DON, 3ADON and 15ADON concentrations was performed by reversed-phase HPLC using Waters Alliance System equipped with a Waters 2690 XE separation module and a Waters 996 photodiode array detector (Waters, Saint Quentin Falavier, France). The separation was achieved by mean of a LiChroCart column (125 mm × 4 mm) packed with 5 μm RP-18 Purospher gel (Merck, Darmstadt, Germany) and equipped with a LiChroCart precolumn (4 mm × 4 mm) packed with the same material (Merck). The precolumn and column were placed in room temperature. […] Quantification was based on calibration with the corresponding standard using Millinium Software (Waters, Saint Quentin Falavier, France).

[2] = tested on: secreted digestive enzymes and fecal bacteria; test: Deacetylation of 3/15ADON by secreted digestive enzymes and fecal bacteria (taken together); format: in vitro ADME; conditions: digestive enzymes plus fecal bacteria
Protocol: The whole procedure involving fecal bacteria (including the use of fecal bacteria for the deacetylation assay) was performed in an anaerobic cabinet (Coy Laboratory Products, Grass Lake, MI, USA). Human fecal bacteria were isolated from three volunteers (men) working in the department, 40–50 years of age. Stools were collected fresh in a sterile container and were immediately introduced into the anaerobic cabinet. Feces samples were taken by pushing a cut-off disposal 1 mL pipette tip into the inner part of the stools. Samples were then mechanically suspended in 9 mL of degassed PBS^++. Homogenates were allowed to decant for ten minutes to eliminate insoluble matter, and supernatants (1 mL aliquots) were transferred to sterile Eppendorf tubes and used for deacetylation assay.
Stock solutions of DON, 3ADON and 15ADON at 2 mg/mL were prepared in absolute ethanol and stored at −20 °C. For deacetylation assay, 3- or 15ADON were incubated with cells, explants, bacteria or digestive enzymes after being diluted in PBS^++ at a final concentration of 100 μM. PBS^++ solution containing only ethanol (at 1.5% final concentration) or DON (at 100 μM) were used in parallel as negative and positive control, respectively. […] In all cases, aliquots of the reaction solution were collected immediately (i.e., “time zero” sample) or after the indicated time period at 37 °C and analyzed by HPLC. […]

T1 sequence (P00761 9-231): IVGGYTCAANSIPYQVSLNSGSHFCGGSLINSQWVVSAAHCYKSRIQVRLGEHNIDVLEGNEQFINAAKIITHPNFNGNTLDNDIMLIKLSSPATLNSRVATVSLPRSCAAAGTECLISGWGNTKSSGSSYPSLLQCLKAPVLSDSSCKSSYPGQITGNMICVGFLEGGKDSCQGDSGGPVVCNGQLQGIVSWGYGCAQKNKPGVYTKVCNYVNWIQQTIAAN

Row | Compound | Disappearance of 3/15ADON, specific activity (trypsin) [pmol/min/mg] | Disappearance of 3/15ADON, specific activity (pancreatin) [pmol/min/mg] | Disappearance of 3/15ADON, specific activity (A498 cells; A498, 37 °C, substrate 100 μM) | Disappearance of 3/15ADON, specific activity [1] | Activity of renal S9 fraction on 3/15ADON [1] | Contribution to total deacetylation: intestinal luminal events [2] [%] | Activity of renal cells on 15ADON (A498 cells; in words)
1 | CC(=O)O[C@@H]1C[C@]2(C)[C@@]3(CO)[C@H](O)C(=O)C(C)=C[C@H]3O[C@H]1[C@@]21CO1 [3ADON, 3-acetyldeoxynivalenol] | 57 ± 19 | 24 ± 16 | 79 pmol/min/mg and 79 ± 46 pmol/min/mg | 33 pmol/min/mg and 33 ± 8.3 pmol/min/mg | minor activity, if any | 16 | –
2 | CC(=O)OC[C@]12[C@H](O)C(=O)C(C)=C[C@H]1O[C@@H]1[C@H](O)C[C@@]2(C)[C@]12CO2 [15ADON, 15-acetyldeoxynivalenol] | 94 ± 62 | 26 ± 17 | – | 16 pmol/min/mg and 16 ± 5.8 pmol/min/mg | minor activity, if any | 34 | virtually inactive
